Molecules are shown by their SMILES. A value given as a limit tells only on which side of the number the result lay.

IC50 data for 27 compounds are collected here from patent US8637525B2, “Compounds for the reduction of beta-amyloid production” (Bristol-Myers Squibb Company, priority 2009, dated 2014).

The test system of the first test is Aβ1-42 production. The test can be described thus: Cellular assay for inhibition of Aβ1-42 production (H4 APP751 SWE clone 8.20). The conditions noted are these: 19 h, H4 APP751 SWE clone 8.20 cells, 19 h incubation; class symbols; read-out: Activity Rating (Aβ42 cellular IC50). Format: cell-based. The method in brief:
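Viewlux signal read-out; IC50 by curve fit. Sandwich: 565 anti-Aβ42 neoepitope (Wallac conjugate, 0.8 ng/well) + 26D6 anti-N-terminus (APC, 75 ng/well), in Tris-HCl 40 mM pH 7.4/0.2% BSA, o/n 4 °C. Cells exposed to compound 19 h, 37 °C, 5% CO2.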
For orientation: IC50 means the concentration that inhibits the measured activity by half. For the compound `CCNc1nc(Nc2ccc(-n3ncnc3C)c(F)c2)nc2c1COC2c1ccc(F)cc1` (single isomer, unassigned) [Example 78B, N^4-ethyl-N^2-(3-fluoro-4-(5-methyl-1H-1,2,4-triazol-1-yl)phenyl)-7-(4-fluorophenyl)-5,7-dihydrofuro[3,4-d]pyrimidine-2,4-diamine], the IC50 fell in the range of 10 to 100 nM.

Turning to `CNc1nc(Nc2ccc(-c3ccncc3)c(OC)c2)nc2c1CCC2c1ccccc1` (stereo not drawn) [Example 262, N2-(3-methoxy-4-(pyridin-4-yl)phenyl)-N4-methyl-7-phenyl-6,7-dihydro-5H-cyclopenta[d]pyrimidine-2,4-diamine], the concentration for half-maximal inhibition (IC50) lay within 1.5 to 9.9 nM.

On to `CNc1nc(Nc2ccc(C#N)cc2)nc2c1CN(S(C)(=O)=O)CC2c1ccc(F)cc1` (stereo not drawn) [Example 207, 4-(8-(4-fluorophenyl)-4-(methylamino)-6-(methylsulfonyl)-5,6,7,8-tetrahydropyrido[4,3-d]pyrimidin-2-ylamino)benzonitrile], for which the 50% inhibitory concentration (IC50) was in the range of 100 to 1000 nM.

Regarding `CCN(C)c1nc(Nc2ccc(-n3cnc(Cl)c3)c(OC)c2)nc2c1CCCC2c1ccccc1` (racemic) [Example 124, N^2-(4-(4-Chloro-1H-imidazol-1-yl)-3-methoxyphenyl)-N^4-ethyl-N^4-methyl-8-phenyl-5,6,7,8-tetrahydroquinazoline-2,4-diamine], the half-maximal inhibitory concentration (IC50) lay in the range of 10 to 100 nM.

For the compound `CNc1nc(Nc2ccc(-n3cnc(Cl)c3)c(OC)c2)nc2c1CCC2c1ccc(Cl)cc1` (racemic) [Example 94, N^2-(4-(4-Chloro-1H-imidazol-1-yl)-3-methoxyphenyl)-7-(4-chlorophenyl)-N^4-methyl-6,7-dihydro-5H-cyclopenta[d]pyrimidine-2,4-diamine], the IC50 is 1.5 to 9.9 nM.

With `CCN(C)c1nc(Nc2ccc(-n3cnc(Cl)c3)c(OC)c2)nc2c1CCOC2c1ccc(F)cc1` (stereo not drawn) [Example 89, N2-(4-(4-chloro-1H-imidazol-1-yl)-3-methoxyphenyl)-N4-ethyl-8-(4-fluorophenyl)-N4-methyl-6,8-dihydro-5H-pyrano[3,4-d]pyrimidine-2,4-diamine], the IC50 lay within 10 to 100 nM.

Consider `CNc1nc(Nc2ccc(-n3cnc(C)c3)c(OC)c2)nc2c1COCC2c1ccc(Cl)cc1` (stereo not drawn) [Example 70, 8-(4-chlorophenyl)-N^2-(3-methoxy-4-(4-methyl-1H-imidazol-1-yl)phenyl)-N^4-methyl-7,8-dihydro-5H-pyrano[4,3-d]pyrimidine-2,4-diamine], for which the IC50 is 1.5 to 9.9 nM.

For `CNc1nc(Nc2cc(F)cc(F)c2)nc2c1CCC2c1ccccc1` (stereo not drawn) [Example 219, N2-(3,5-difluorophenyl)-N4-methyl-7-phenyl-6,7-dihydro-5H-cyclopenta[d]pyrimidine-2,4-diamine], the IC50 was > 1000 nM.

Take `COc1cc(Nc2nc3c(c(N4CCC(F)C4)n2)COCC3c2ccc(F)cc2)ccc1-n1cnc(Cl)c1` (stereo in doubt) [Example 57B, N-(4-(4-chloro-1H-imidazol-1-yl)-3-methoxyphenyl)-8-(4-fluorophenyl)-4-((R)-3-fluoropyrrolidin-1-yl)-7,8-dihydro-5H-pyrano[4,3-d]pyrimidin-2-amine]: the IC50 fell in the range of 100 to 1000 nM.

Still in this test, the particulars now being: 19 h, H4 APP751 SWE clone 8.20 cells, 19 h incubation; read-out: Activity Rating (Aβ42 cellular IC50), numeric value.
Consider `CCNc1nc(Nc2ccc(-n3cnc(Cl)c3)c(OC)c2)nc2c1CN(S(C)(=O)=O)CC2c1ccccc1` (stereo not drawn) [Example 134A, N2-(4-(4-chloro-1H-imidazol-1-yl)-3-methoxyphenyl)-N4-ethyl-6-(methylsulfonyl)-8-phenyl-5,6,7,8-tetrahydropyrido[4,3-d]pyrimidine-2,4-diamine], for which the IC50 amounted to 3.6 nM.

`COc1cc(Nc2nc3c(c(N4CC(C)(OC)C4)n2)CCC3c2ccc(F)cc2)ccc1-n1cnc(Cl)c1` (stereo not drawn) [Example 191B, N-(4-(4-chloro-1H-imidazol-1-yl)-3-methoxyphenyl)-7-(4-fluorophenyl)-4-(3-methoxy-3-methylazetidin-1-yl)-6,7-dihydro-5H-cyclopenta[d]pyrimidin-2-amine]: the IC50 came to 96 nM.

As to `CCNc1nc(Nc2ccc(-n3ncnc3C)c(F)c2)nc2c1CN(C(=O)C1CC1)CC2c1ccccc1` (stereo not drawn) [Example 144B, cyclopropyl(4-(ethylamino)-2-(3-fluoro-4-(5-methyl-1H-1,2,4-triazol-1-yl)phenylamino)-8-phenyl-7,8-dihydropyrido[4,3-d]pyrimidin-6(5H)-yl)methanone], the IC50 was 540 nM.

On to `COc1cc(Nc2nc3c(c(N4C[C@@H]5C[C@H]4CO5)n2)CCC3c2ccc(F)cc2)ccc1-n1cnc(Cl)c1` (single isomer, unassigned) [Example 18A], for which the half-maximal inhibitory concentration (IC50) amounted to 8.8 nM.

Take `COc1cc(Nc2nc3c(c(N4CCC(F)C4)n2)CCOC3c2ccc(F)cc2)ccc1-n1cnc(Cl)c1` (stereo in doubt) [Example 90B, N-(4-(4-chloro-1H-imidazol-1-yl)-3-methoxyphenyl)-8-(4-fluorophenyl)-4-((R)-3-fluoropyrrolidin-1-yl)-6,8-dihydro-5H-pyrano[3,4-d]pyrimidin-2-amine]: the IC50 turned out to be 270 nM.

Regarding `COc1cc(Nc2nc3c(c(N(C)S(C)(=O)=O)n2)CCC3c2ccccc2)ccc1-n1cnc(Cl)c1` (stereo not drawn) [Example 210, N-(2-(4-(4-chloro-1H-imidazol-1-yl)-3-methoxyphenylamino)-7-phenyl-6,7-dihydro-5H-cyclopenta[d]pyrimidin-4-yl)-N-methylmethanesulfonamide], the IC50 was 61 nM.

For the compound `CCNc1nc(Nc2ccc(-n3cnc(Cl)c3)c(OC)c2)nc2c1CCN(C(C)=O)C2c1ccc(F)cc1` (stereo not drawn) [Example 171, 1-(2-(4-(4-chloro-1H-imidazol-1-yl)-3-methoxyphenylamino)-4-(ethylamino)-8-(4-fluorophenyl)-5,6-dihydropyrido[3,4-d]pyrimidin-7(8H)-yl)ethanone], the IC50 came to 16 nM.

Regarding `CCNc1nc(Nc2ccc(-n3ncnc3C)c(F)c2)nc2c1COCC2c1ccc(C(F)(F)F)cc1` (stereo not drawn) [Example 119A, N4-ethyl-N2-(3-fluoro-4-(5-methyl-1H-1,2,4-triazol-1-yl)phenyl)-8-(4-(trifluoromethyl)phenyl)-7,8-dihydro-5H-pyrano[4,3-d]pyrimidine-2,4-diamine], the 50% inhibitory concentration (IC50) was determined as 7.4 nM.

The test is the same for the next values; noted with them: H4 APP751 SWE clone 8.20 cells, 19 h incubation; class symbols; read-out: Activity Rating (Aβ42 cellular IC50).
Consider `CCNc1nc(Nc2ccc(-n3cnc(Cl)c3)c(OC)c2)nc2c1CCN(CC)C2c1ccc(F)cc1` (single isomer, unassigned) [Example 169A, N2-(4-(4-chloro-1H-imidazol-1-yl)-3-methoxyphenyl)-N4,7-diethyl-8-(4-fluorophenyl)-5,6,7,8-tetrahydropyrido[3,4-d]pyrimidine-2,4-diamine], for which the IC50 was 1.5 to 9.9 nM.

As for `COc1cc(Nc2nc(N[C@@H](C)C3CC3)c3c(n2)C(c2ccc(F)cc2)CC3)ccc1-n1cnc(Cl)c1` (single isomer, unassigned) [Example 50B], the IC50 was 10 to 100 nM.

Take `CNc1nc(Nc2ccc(-n3cnc(Cl)c3)c(OC)c2)nc2c1COCC2c1ccc(Cl)cc1` (single isomer, unassigned) [Example 64B, N^2-(4-(4-chloro-1H-imidazol-1-yl)-3-methoxyphenyl)-8-(4-chlorophenyl)-N^4-methyl-7,8-dihydro-5H-pyrano[4,3-d]pyrimidine-2,4-diamine]: the concentration for half-maximal inhibition (IC50) was in the range of 10 to 100 nM.

Consider `CCC1CCCN1c1nc(Nc2ccc(-n3cnc(Cl)c3)c(OC)c2)nc2c1CCC2c1ccc(F)cc1` (single isomer, unassigned) [Example 24A, N-(4-(4-chloro-1H-imidazol-1-yl)-3-methoxyphenyl)-4-(2-ethylpyrrolidin-1-yl)-7-(4-fluorophenyl)-6,7-dihydro-5H-cyclopenta[d]pyrimidin-2-amine], for which the half-maximal inhibitory concentration (IC50) lay within 10 to 100 nM.

Take `CNc1nc(Nc2ccc(-n3cnc(Cl)c3)c(OC)c2)nc2c1CCC2c1ccccc1` (single isomer, unassigned) [Example 7B, N^2-(4-(4-chloro-1H-imidazol-1-yl)-3-methoxyphenyl)-N^4-methyl-7-phenyl-6,7-dihydro-5H-cyclopenta[d]pyrimidine-2,4-diamine]: the IC50 fell in the range of 10 to 100 nM.

Consider `CCN(C)c1nc(Nc2ccc(-n3cnc(Cl)c3)c(OC)c2)nc2c1CCC2c1ccccc1` (single isomer, unassigned) [Example 5B, N^2-(4-(4-chloro-1H-imidazol-1-yl)-3-methoxyphenyl)-N^4-ethyl-N^4-methyl-7-phenyl-6,7-dihydro-5H-cyclopenta[d]pyrimidine-2,4-diamine], for which the 50% inhibitory concentration (IC50) lay within 10 to 100 nM.

Consider `CNc1nc(Nc2ccc(-n3cnc(Cl)c3)c(OC)c2)nc2c1CCC2c1cc(F)cc(F)c1` (stereo not drawn) [Example 102A, N^2-(4-(4-Chloro-1H-imidazol-1-yl)-3-methoxyphenyl)-7-(3,5-difluorophenyl)-N^4-methyl-6,7-dihydro-5H-cyclopenta[d]pyrimidine-2,4-diamine], for which the 50% inhibitory concentration (IC50) fell in the range of 1.5 to 9.9 nM.

Regarding `CCNc1nc(Nc2ccc(-n3cnc(Cl)c3)c(OC)c2)nc2c1COCC2c1ccc(C(F)(F)F)cc1` (stereo not drawn) [Example 118A, N2-(4-(4-chloro-1H-imidazol-1-yl)-3-methoxyphenyl)-N4-ethyl-8-(4-(trifluoromethyl)phenyl)-7,8-dihydro-5H-pyrano[4,3-d]pyrimidine-2,4-diamine], the IC50 is 1.5 to 9.9 nM.

In the case of `CCN(C)c1nc(Nc2ccc(-n3cnc(Cl)c3)c(OC)c2)nc2c1CCN(S(C)(=O)=O)C2c1ccc(F)cc1` (stereo not drawn) [Example 172A, N2-(4-(4-chloro-1H-imidazol-1-yl)-3-methoxyphenyl)-N4-ethyl-8-(4-fluorophenyl)-N4-methyl-7-(methylsulfonyl)-5,6,7,8-tetrahydropyrido[3,4-d]pyrimidine-2,4-diamine], the IC50 lay in the range of 1.5 to 9.9 nM.

Regarding `CCNc1nc(Nc2ccc(-n3cnc(Cl)c3)c(OC)c2)nc2c1COCC2c1ccc(C(F)(F)F)cc1` (stereo not drawn) [Example 118B, N2-(4-(4-chloro-1H-imidazol-1-yl)-3-methoxyphenyl)-N4-ethyl-8-(4-(trifluoromethyl)phenyl)-7,8-dihydro-5H-pyrano[4,3-d]pyrimidine-2,4-diamine], the IC50 lay in the range of 100 to 1000 nM.
